According to ChEMBL document CHEMBL1132772, “NMR line-broadening and transferred NOESY as a medicinal chemistry tool for studying inhibitors of the hepatitis C virus NS3 protease domain” (Bioorg Med Chem Lett, 2000):
Starred links: 1 amine or outer side, 2 acyl side, 3 side chain; linkers in the order of their positions; H or OH if unused. Non-standard residues stand in square brackets, D forms with d. Residues, ends and D or L forms follow the SMILES beside them. *: point of attachment. CH2(1-naphthyl) = c1ccc2c(C*)cccc2c1; Hyp = O=C(O)[C@@H]1C[C@@H](O)CN1; Suc = O=C(CCC(=O)[*:2])[*:1]; Nva = CCC[C@H](N)C(=O)O; Ac3c = NC1(C(=O)O)CC1

Target: NS3 (Hepatitis C virus, UniProt A3EZJ3)
Sequence (A3EZJ3 whole entry): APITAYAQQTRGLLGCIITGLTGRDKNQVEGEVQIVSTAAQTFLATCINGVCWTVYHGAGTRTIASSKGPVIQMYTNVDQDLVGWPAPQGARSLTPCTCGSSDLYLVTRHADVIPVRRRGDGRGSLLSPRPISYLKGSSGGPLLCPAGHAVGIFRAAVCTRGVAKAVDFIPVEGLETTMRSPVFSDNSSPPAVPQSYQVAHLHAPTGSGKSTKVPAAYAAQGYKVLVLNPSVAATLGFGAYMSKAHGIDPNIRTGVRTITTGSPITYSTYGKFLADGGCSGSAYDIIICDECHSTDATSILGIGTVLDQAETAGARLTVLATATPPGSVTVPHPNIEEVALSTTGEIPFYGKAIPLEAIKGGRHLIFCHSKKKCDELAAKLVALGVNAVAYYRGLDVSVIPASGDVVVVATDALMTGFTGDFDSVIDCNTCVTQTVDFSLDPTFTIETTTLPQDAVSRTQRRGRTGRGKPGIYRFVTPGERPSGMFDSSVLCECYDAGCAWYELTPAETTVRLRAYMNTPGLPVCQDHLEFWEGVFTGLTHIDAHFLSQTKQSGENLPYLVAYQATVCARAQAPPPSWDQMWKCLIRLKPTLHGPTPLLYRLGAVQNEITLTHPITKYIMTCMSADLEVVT
Test: Inhibitory concentration required against NS3 Protease of Hepatitis C Virus
Parameters: species or system Hepacivirus hominis

Structure (SMILES) | IC50
CC[C@H](C)[C@H](NC(=O)CCC(=O)O)C(=O)N[C@H](C(=O)N1C[C@H](OCc2cccc3ccccc23)C[C@H]1C(=O)NC1(C(=O)O)CC1)C(C)C (Suc-IV[Hyp](CH2(1-naphthyl))[Ac3c]-OH) | 5.5 µM
CCC[C@H](NC(=O)[C@@H]1C[C@@H](OCc2cccc3ccccc23)CN1C(=O)[C@@H](NC(=O)[C@@H](NC(=O)CCC(=O)O)[C@@H](C)CC)C(C)C)C(=O)O (Suc-IV[Hyp](CH2(1-naphthyl))[Nva]-OH) | 22 µM
